Test results reported in article PMC8406801, “Naringenin Inhibits Platelet Activation and Arterial Thrombosis Through Inhibition of Phosphoinositide 3-Kinase and Cyclic Nucleotide Signaling” (Frontiers in Pharmacology, 2021).
“And” between values parts separate entries of the source, which are not always exact repeats. Identical values can stand only once. Like-named read-outs stand apart in the source and are kept apart here.

Experiments:
[1] = system: washed rat platelets; assay: ADP (10 μM)-induced aggregation of washed rat platelets; format: cell-based; settings: for ADP-induced platelet aggregation (control group taken as 100%): mean ± SD, n = 6
Procedure: Platelet-rich plasma (PRP) was obtained, and after the addition of 100 ng/ml PGE1, platelets were pelleted at 900 × g for 10 min. […] Washed platelets were preincubated with vehicle (0.4% dimethyl sulfoxide) or various concentrations of naringenin in the presence of 2 mM CaCl2 for 5 min at 37°C, and then further stimulated by ADP (10 μM), thrombin (0.2 U/mL) or collagen (2 μg/ml). The maximum platelet aggregation rate was detected within 5 min with continuous stirring.
Platelet aggregation was induced by ADP using washed platelets and PRP. Washed platelets were preincubated with vehicle (containing 0.4% DMSO) or different doses (100, 200, 400, and 800 μM) of naringenin or naringin for 5 min before activation with ADP (10 μM) for 5 min.
(§1) FIGURE 1 Effects of naringenin and naringin on platelet aggregation. Chemical structure of naringin (A) and naringenin (B). The effects of naringin (C) or naringenin (D) on PRP were measured following stimulation with 10 μmol/L ADP. Rat washed platelet aggregation performed with or without different concentrations of naringin (E) or naringenin (F) was recorded after stimulation with 10 μmol/L ADP. Similarly, Washed platelet aggregation performed with vehicle or various concentrations of naringenin was recorded after stimulation with 0.2 U/mL thrombin (G) or 2 μg/ml collagen (H). WP represents washed platelets. Data are expressed as means ± SD (n = 6), the level of aggregation obtained at 5 min with vehicle-treated samples (0 μM) was taken as 100%. *p < 0.05, **p < 0.01, ***p < 0.001 compared with the vehicle control group.

[2] = system: washed rat platelets; assay: Thrombin (0.2 U/mL)-induced aggregation of washed platelets; format: cell-based; settings: for Aggregation (%) / Aggregation % of control: washed platelets, single replicates; for Aggregation (%): raw data
Procedure: Washed rat platelets were prepared as described previously ([Gao et al., 2011]) with a minor modification. Briefly, rat blood was drawn from the abdominal aorta into the siliconized vacutainers containing 1:9 (v/v) 3.8% sodium citrate, supplemented with 100 ng/ml prostaglandin E1 (PGE1) and centrifuged at 300 × g for 6 min at room temperature. Platelet-rich plasma (PRP) was obtained, and after the addition of 100 ng/ml PGE1, platelets were pelleted at 900 × g for 10 min. Platelets were washed once in Tyrode’s buffer (12 mM NaHCO3, 138 mM NaCl, 5.5 mM glucose, 2.9 mM KCl, 2 mM MgCl2, 0.42 mM NaH2PO4, 10 mM HEPES, pH 7.4) containing 100 ng/ml PGE1, and finally resuspended in Tyrode’s buffer containing 0.02 U/mL apyrase to a final concentration of 4×10^8 cells/mL. Washed platelets were preincubated with vehicle (0.4% dimethyl sulfoxide) or various concentrations of naringenin in the presence of 2 mM CaCl2 for 5 min at 37°C, and then further stimulated by ADP (10 μM), thrombin (0.2 U/mL) or collagen (2 μg/ml). The maximum platelet aggregation rate was detected within 5 min with continuous stirring.
as §1

[3] = Cytotoxicity: LDH leakage from platelets; format: cell-based; settings: rat
Procedure: To assess the potential cytotoxicity of naringenin, lactate dehydrogenase (LDH) leakage from platelets were determined. Washed platelets were preincubated with either various concentrations of naringenin or vehicle at 37°C for 5 min and then centrifuged at 350 × g for 3 min at room temperature. The supernatant was detected by LDH assay kit (Beyotime Biotechnology, Shanghai, China). LDH leakage was expressed as percentages of the total LDH leakage in platelets completely lysed with 0.1% Triton X-100.

[4] = system: PI3Kp110β; assay: Immunoblotting of PI3Kp110β in ADP-stimulated washed platelets; format: cell-based, rat; settings: ADP 10 μmol/L, single replicates; for PI3Kp110β / GAPDH: raw data
Procedure: For in vitro platelet aggregation, aliquots of washed platelets were preincubated with vehicle or various concentrations of naringenin for 5 min and stimulated with ADP (10 μmol/L) under stirring at 37°C for 5 min. For ex vivo platelet aggregation, PRP was incubated at 37°C for 5 min and stimulated with ADP (5 μmol/L) under stirring at 37 °C. The platelet aggregation was terminated by adding ethylenediaminetetraacetic acid (EDTA; 10 mM). Total protein was prepared using RIPA lysis buffer and protein content was determined by bicinchoninic acid (BCA) protein assay kit. Equal amounts of platelet proteins (30 μg) were separated on 10% SDS polyacrylamide gel electrophoresis (SDS-PAGE) and then transferred to poly vinylidene difluoride (PVDF) membranes and subjected to western blot. Blots were blocked with TBS-Tween 20 containing 5% BSA and probed with primary antibodies diluted in blocking solution at 4°C overnight followed by incubation with the corresponding HRP secondary antibodies. The protein bands were visualized using enhanced chemiluminescence (ECL).
FIGURE 4 Naringenin inhibits PI3K-mediated signaling in ADP-induced platelets. Washed rat platelets were preincubated without or with naringenin at 37°C for 5 min, and then stimulated with ADP (10 μmol/L) under stirring for 5 min. Platelet proteins were then extracted and analyzed by immunoblotting using PI3Kp110β antibody (A) and phospho-specific antibodies such as Akt^Ser473 (B), Akt^Thr308 (C), ERK1/2^Thr202/Tyr204 (D) and GSK3β^Ser9 (E). Total level of GAPDH was measured on each sample as a loading control. The blots shown are representative of three separate experiments. The relative protein expression levels were quantified by ImageJ 1.47v software. The level of relative protein expression obtained with vehicle control (0 μM) was taken as 1. R represents the level of relative protein expression in resting platelets. Data are expressed as means ± SD (n = 3). *p < 0.05, **p < 0.01, ***p < 0.001 compared with the vehicle control group.

## O=C1C[C@@H](c2ccc(O)cc2)Oc2cc(O)cc(O)c21 [Naringenin]
[1]; ADP 10 μM
  IC50: ~118 µM
[1]; ADP-induced, 100 μM
  reduction of aggregation of washed platelets: 45%
[1]; Figure 5A: washed platelets, ADP 10 μM, naringenin 200 μM alone, single replicates
  Aggregation (%): 38.3% and 37.5% and 34.7% and 44.0% and 29.6% and 42.4%
[1]; Rattus norvegicus, Platelet, ADP 10 μM
  IC50: 118 ± 10.4 µM
[1]; Rattus norvegicus, Platelet, washed platelets, ADP 10 μmol/L, compound 100 μM, single replicates, read-out: Aggregation % of control
  activity at 100 µM: 50.4%
[1]; Rattus norvegicus, Platelet, washed platelets, ADP 10 μmol/L, compound 400 μM, single replicates, read-out: Aggregation % of control
  activity at 400 µM: 12%
[1]; Rattus norvegicus, Platelet, washed platelets, ADP 10 μmol/L, compound 800 μM, single replicates, read-out: Aggregation % of control
  activity at 800 µM: 6.7%
[1]; washed platelets, ADP 10 μM, 800 μM
  level of inhibition relative to naringin: 11 fold
[1]; washed platelets, ADP 10 μM, compound 100 μM
  ADP-induced platelet aggregation (control group taken as 100%): 54.5 ± 6.2%
[1]; washed platelets, ADP 10 μM, compound 800 μM
  ADP-induced platelet aggregation (control group taken as 100%): 6.3 ± 1.7%
[1]; washed platelets, ADP 10 μmol/L, compound 100 μM, raw data, single replicates
  Aggregation (%): 35.6% and 34.2% and 43.2% and 37.5% and 36.0% and 44.7%
[1]; washed platelets, ADP 10 μmol/L, compound 100 μM, single replicates, 100 µM
  Aggregation % of control: 48.4 % of control and 61.1 % of control and 53.1 % of control and 51.0 % of control and 63.3 % of control
[1]; washed platelets, ADP 10 μmol/L, compound 200 μM, raw data, single replicates
  Aggregation (%): 24.7% and 26.3% and 34.7% and 21.2% and 13.9% and 29.4%
[1]; washed platelets, ADP 10 μmol/L, compound 200 μM, single replicates, 200 µM
  Aggregation % of control: 35.0 % of control and 37.2 % of control and 49.1 % of control and 30.0 % of control and 19.7 % of control and 41.6 % of control
[1]; washed platelets, ADP 10 μmol/L, compound 400 μM, raw data, single replicates
  Aggregation (%): 8.5% and 6.2% and 6.9% and 8.1% and 8.7% and 7.6%
[1]; washed platelets, ADP 10 μmol/L, compound 400 μM, single replicates, 400 µM
  Aggregation % of control: 8.8 % of control and 9.8 % of control and 11.5 % of control and 12.3 % of control and 10.8 % of control
[1]; washed platelets, ADP 10 μmol/L, compound 800 μM, raw data, single replicates
  Aggregation (%): 4.7% and 3.7% and 5.6% and 6.1% and 3.6% and 3.1%
[1]; washed platelets, ADP 10 μmol/L, compound 800 μM, single replicates, 800 µM
  Aggregation % of control: 5.2 % of control and 7.9 % of control and 8.6 % of control and 5.1 % of control and 4.4 % of control
[2]
  IC50: ~684 µM
[2]; Rattus norvegicus, Platelet
  IC50: 684 ± 80.8 µM
[2]; 100 μM
  Aggregation (%): 77.1% and 76.2% and 52.9% and 66.7% and 72.2% and 88.4%
  Aggregation % of control: 95.0 % of control and 93.9 % of control and 65.2 % of control and 82.2 % of control and 88.9 % of control and 108.9 % of control
[2]; 200 μM
  Aggregation (%): 79.6% and 67.1% and 56.9% and 52.0% and 48.0% and 62.4%
  Aggregation % of control: 98.1 % of control and 82.7 % of control and 70.1 % of control and 64.1 % of control and 59.1 % of control and 76.9 % of control
[2]; 400 μM
  Aggregation (%): 77.0% and 53.3% and 68.0% and 42.9% and 66.7% and 43.5%
  Aggregation % of control: 94.9 % of control and 65.7 % of control and 83.8 % of control and 52.9 % of control and 82.2 % of control and 53.6 % of control
[2]; 800 μM
  Aggregation (%): 45.5% and 30.8% and 28.0% and 42.4% and 22.5% and 36.0%
  Aggregation % of control: 56.1 % of control and 37.9 % of control and 34.5 % of control and 52.2 % of control and 27.7 % of control and 44.4 % of control
[3]; Cytotoxicity (%)
  cytotoxicity at 5 min, 100 µM: 0.99 ± 0.21%
  cytotoxicity at 5 min, 200 µM: 1.16 ± 0.39%
  cytotoxicity at 5 min, 400 μM: 2.11 ± 0.81%
  cytotoxicity at 5 min, 800 μM: 2.5 ± 0.85%
[3]; washed platelets, naringenin 400 μM, LDH leakage, Table 1, read-out: Cytotoxicity (%)
  cytotoxicity at 5 min, 400 μM: 1.94%
[3]; washed platelets, naringenin 800 μM, LDH leakage, Table 1, read-out: Cytotoxicity (%)
  cytotoxicity at 5 min, 800 μM: 1.94%
[4]; 100 μM
  PI3Kp110β / GAPDH: 0.2747 and 0.1851 and 0.4122
  PI3Kp110β / GAPDH (Fold to ADP only): 0.5384 Fold to ADP only and 0.3629 Fold to ADP only and 0.8080 Fold to ADP only
[4]; 200 μM
  PI3Kp110β / GAPDH: 0.2677 and 0.1570 and 0.3210
  PI3Kp110β / GAPDH (Fold to ADP only): 0.5248 Fold to ADP only and 0.3077 Fold to ADP only and 0.6292 Fold to ADP only
[4]; 400 μM
  PI3Kp110β / GAPDH: 0.1072 and 0.1459 and 0.2766
  PI3Kp110β / GAPDH (Fold to ADP only): 0.2102 Fold to ADP only and 0.2861 Fold to ADP only and 0.5422 Fold to ADP only
[4]; 800 μM
  PI3Kp110β / GAPDH: 0.0408 and 0.0426 and 0.1130
  PI3Kp110β / GAPDH (Fold to ADP only): 0.0801 Fold to ADP only and 0.0835 Fold to ADP only and 0.2214 Fold to ADP only
